Experimental findings from US11555015B2, “Compounds useful in the treatment of autoimmune and inflammatory disorders” (Arena Pharmaceuticals, Inc., priority 2018, dated 2023) are described below.

SMILES strings stand for the structures.

The assay deals with S1P1 (Homo sapiens, UniProt P21453). As to the kind of experiment: Beta arrestin assay (in vitro S1P1 activity). Particulars: in vitro beta-arrestin agonist assay. The format is cell-based. As to the method: The in vitro S1P1 activity was determined in the beta arrestin assay.
S1P1, sequence (P21453 whole entry, species assumed): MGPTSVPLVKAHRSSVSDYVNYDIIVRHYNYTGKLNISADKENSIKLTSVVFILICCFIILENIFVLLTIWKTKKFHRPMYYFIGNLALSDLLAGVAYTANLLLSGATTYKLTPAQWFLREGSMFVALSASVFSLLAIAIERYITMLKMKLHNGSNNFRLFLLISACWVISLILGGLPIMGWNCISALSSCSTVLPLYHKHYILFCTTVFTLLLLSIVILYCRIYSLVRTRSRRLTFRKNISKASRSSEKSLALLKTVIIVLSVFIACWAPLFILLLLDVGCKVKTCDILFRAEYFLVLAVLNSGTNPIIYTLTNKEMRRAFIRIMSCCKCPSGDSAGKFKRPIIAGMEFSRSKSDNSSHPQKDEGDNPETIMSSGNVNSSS

Regarding `O=C(O)CC1CCc2c1[nH]c1ccc(OCc3ccc(C4CCCC4O)c(C(F)(F)F)c3)cc21` (mixture of isomers) [Compound 4, 2-(7-((4-(2-hydroxycyclopentyl)-3-(trifluoromethyl)benzyl)oxy)-1,2,3,4-tetrahydrocyclopenta[b]indol-3-yl)acetic acid], the EC50 was determined as 3.66 nM.
Under `O=C(O)CC1CCc2c1[nH]c1ccc(OCc3ccc(C4CCC(O)C4)c(C(F)(F)F)c3)cc21` (single isomer, unassigned) [Compound 2-1, 2-(7-((4-(3-Hydroxycyclopentyl)-3-(trifluoromethyl)benzyl)oxy)-1,2,3,4-tetrahydrocyclopenta[b]indol-3-yl)acetic Acid] stands 52.1 nM; under `O=C(O)CC1CCc2c1[nH]c1ccc(OCc3ccc(C4CCC(O)C4)c(C(F)(F)F)c3)cc21` (single isomer, unassigned) [Compound 2-2, 2-(7-((4-(3-Hydroxycyclopentyl)-3-(trifluoromethyl)benzyl)oxy)-1,2,3,4-tetrahydrocyclopenta[b]indol-3-yl)acetic Acid], 85.6 nM; under `O=C(C[C@H]1CCc2c1[nH]c1ccc(OCc3ccc(C4CCCC4)c(C(F)(F)F)c3)cc21)OC1O[C@H](C(=O)O)[C@@H](O)[C@H](O)[C@H]1O` (stereo partly drawn) [Compound 1, (2S,3S,4S,5R)-6-(2-((R)-7-((4-cyclopentyl-3-(trifluoromethyl)benzyl)oxy)-1,2,3,4-tetrahydrocyclopenta[b]indol-3-yl)acetoxy)-3,4,5-trihydroxytetrahydro-2H-pyran-2-carboxylic acid], 3.9 nM.
Under `O=C(O)CC1CCc2c1[nH]c1ccc(OCc3ccc(C4CCCC4O)c(C(F)(F)F)c3)cc21` (centres unmarked) [Compound 4-1, 2-(7-((4-(2-Hydroxycyclopentyl)-3-(trifluoromethyl)benzyl)oxy)-1,2,3,4-tetrahydrocyclopenta[b]indol-3-yl)acetic Acid] stands 16.7 nM.
